Experimental data: patent US20130157261A1, “Compositions and Methods for Quantitative Histology, Calibration of Images in Fluorescence Microscopy, and ddTUNEL Analyses” (The Methodist Hospital Research Institute, priority 2011, published 2013)

How the values were obtained:
[1] = tested on: normal human astrocytes (NHA); conditions: 14.4 μM thimerosal
Description: NHA were incubated for 1 hour with probes before fixation. Fixation in buffered paraformaldehyde (PFA) was performed in two stages. Firstly, a 50-4 aliquot of ice-cold 8% PFA was added to each well, then gently aspirated and the wells were twice washed with ice-cold 2% PFA and then allowed to completely fix at 4° C. After fixation, cells were washed twice in 1×PBS (Thermo Fisher Scientific, Rockford, Ill., USA). The tanks were then removed from the slides, the well area covered with Fluoromount-G (SouthernBiotech, Ill., USA), cover-slipped and sealed with nail varnish.

[2] = tested on: normal human astrocytes (NHA); conditions: 14.4 μM thimerosal, 1 hr, vs control (FIG. 21)
Description: (§1) Normal human astrocytes (NHA) were obtained from Lonza (Walkersville, Md., USA) and grown subject to their recommendations. NHA were grown to confluency in Astrocyte Cell Basal Medium supplemented with 3% FBS, Glutamine, Insulin, fhEGF, GA-1000 and ascorbic acid in 16-well Lab-Tek slide chambers (Nalge Nunc, Rochester, N.Y., USA), in a total volume of 240 μL.
(§2) Fixed cells were permeabilized using 1×PBS with 0.1% Triton X-100®. Hydrazine reactive aldehyde/ketones were labeled using 225 μM Biotin-XX hydrazide (Hensley, 2009) (Cat. No. B2600) and visualized using Texas Red-Avidin (Cat. No. A820). The activity of Caspase-3 in fixed, 0.1% Triton-permeabilized cells was measured using the R110-EnzChek® Assay Kit (Molecular Probes, Cat. No. E13184), and incubating cells for 1 h at 37° C. (Scott et al., 2003).
(§3) 3% FCS was present in the NHA medium throughout the time-course. To generate the time-course shown in FIG. 17A and FIG. 17B, NHA were exposed to Mitotracker, H2DCFAM and Hoechst at t=0.

[3] = tested on: normal human astrocytes (NHA)
From the text: as §3

Caspase-3 = conditions: NHA, 14.4 μM thimerosal, 1 hr, vs control
Description: as §2, §3

[4] = tested on: normal human astrocytes (NHA); remark: listed apart in the source
Description: as §1
NHA were incubated for 1 hour with probes before fixation. Fixation in buffered paraformaldehyde (PFA) was performed in two stages. Firstly, a […] of ice-cold 8% PFA was added to each well, then gently aspirated and the wells were twice washed with ice-cold 2% PFA and then allowed to completely fix at 4° C. After fixation, cells were washed twice in 1×PBS (Thermo Fisher Scientific, Rockford, Ill., USA). The tanks were then removed from the slides, the well area covered with Fluoromount-G (SouthernBiotech, Ill., USA), cover-slipped and sealed with nail varnish.
DNA was visualized using 1 μM Hoechst 33258 (Cat. No. H1398), mitochondrial membrane potential with 500 nM Mitotracker® Red (Dagda et al., 2009) (Cat. No. M22425), hydrogen peroxide using 5 μM H2DCFAM (Whiteman et al., 2009; Setsukinai et al., 2003) (Cat. No. D399), mitochondrial superoxide generation with 5 μM MitoSOX™ Red (Abramov et al., 2010) (Cat. No. M36008), HO. was assayed using 5 μM hydroxyphenyl fluorescein (Setsukinai et al., 2003) (HPF) (Cat. No. H36004), with reagents obtained from Molecular Probes (Eugene, Oreg., USA).
as §3

[5] = 14.4 μM thimerosal, 1 hr, vs control (FIG. 21)

C[CH2][Hg][S]c1ccccc1C(=O)[O-].[Na+] [Thimerosal]
time at which levels of cellular DCF began to fall [1]: > 40 min
amount of ROS (DCF) generated by mitochondria vs control mitochondria ([1]; 60 min, fit of intensity profiles): four times
increase in ROS (DCF) ([1]; 60 min, vs control): two-fold
increase in steady-state production of reactive oxidants (H2DCF-AM) ([1]; 1 hr, vs control): 200%
increase in cellular hydrazine reactive carbonyls (matches superoxide increase) [2]: ≈ 70%
increase in 3′OH DNA nicks [3, 5]: 300%
increase in levels of mitochondrial DNA breaks [3, 5]: 240%
increase in levels of oxidized bases/apurinic or apyrimidinic sites [3, 5]: 460%
increase in levels of oxidant damaged mitochondrial DNA bases ([3]; Thimerosal treatment): five-fold
increase in Caspase-3 activity (Caspase-3): five-fold
increase in HO. greater than the increase in superoxide generation ([4]; 14.4 μM thimerosal, 1 hr): ≈ 80%
increase in superoxide generation per cell ([4]; 14.4 μM thimerosal, 1 hr): 90%
more HO. generation per superoxide ([4]; 14.4 μM thimerosal, 1 hr, deconvolution of signals): 60%
increase in HO. [4, 5]: 300%
increase in internal mitochondrial steady state level of superoxide [4, 5]: ≈ 70%
thimerosal concentration at which a loss of mitochondrial signal and of DCF was observed ([4]; 60 min, 0-14.4 μM): > 7.2 µM
